Key:
H3R [1] = biological target: T1, H3R (Homo sapiens, UniProt Q9Y5N1); assay: CRE-driven luciferase reporter gene assay in HEK-293 cells stably expressing hH3R; format: cell-based
T1 construct: expressed in transfected cells
Procedure: A, Concentration inhibition curve of luciferase activity induced by ZEL-H16 with forskolin stimulation. […] C. […] The presented data points are the mean ±SE of triplicate values from a single experiment and are representative of three to six separate experiments (*p<0.05; **p<0.01).
(§1) Luciferase activity was detected using a firefly luciferase kit (Promega, Madison, WI). When required, cells were treated overnight with or without PTX (100 ng/ml) in serum-free DMEM before the experiment.

[2] = biological target: T2, human histamine H3 receptor (Homo sapiens, UniProt Q9Y5N1); assay: Competitive/saturation binding with [3H]N-α-methylhistamine, H3R/HEK-293 cell membranes
T2 construct: expressed in transfected cells
Procedure: (§2) Figure 4 Competition binding experiments with [^3H]-N-α-methylhistamine. […] The presented data are the means ±SE of values from a single experiment performed in duplicate and are representative of three to six separate experiments.
HEK-293 cells stably expressing H3R were harvested and resuspended in ice-cold 50 mM Tris-HCl (pH 7.4) containing a complete protease inhibitor cocktail tablet and mixed by inverting. The cell pellet was homogenized with a Polytron PT 1200 set at 4000 rpm and centrifuged at 1,000 g for 5 min. The supernatant was then centrifuged twice at 50,000 g for 30 min at 4°C. Finally, the resulting pellet was gently suspended in 50 mM Tris-HCl (pH 7.4) buffer and the membrane concentration was determined using Bio-Rad protein assays.
(§3) The membranes (50 µg of protein) were incubated with [^3H] N-α-methylhistamine at various concentrations (from 0.03 nM to 50 nM) for saturation binding assays. For competitive binding assays, the membranes (50 µg of protein) were incubated with 10 nM [^3H] N-α-methylhistamine for recombinant hH3R or 2nM [^3H] N-α-methylhistamine for rat brain H3R in the presence of various compound concentrations in the buffer (50 mM Tris–HCl, pH 7.4). […] Following three washes, the membrane-bound radioactivity was measured on a Topcount (PerkinElmer) at 20°C. […] IC50 values were converted to Ki values using the Cheng-Prusoff equation. Each experiment was performed in duplicate and repeated three to six times. All data were analyzed by nonline arregression using GraphPad Prism version 4.0 software.

rat brain H3R = biological target: T3, rat brain H3R (Rattus norvegicus, UniProt Q9QYN8); assay: Competitive/saturation binding with [3H]N-α-methylhistamine, rat cerebral cortex membranes; conditions: 2 nM [3H]N-α-methylhistamine, rat cerebral cortex membranes
T3 construct: from tissue; host or cells: rat cerebral cortex membranes
Procedure: as §2, §3

hH2R = biological target: T4, hH2R (Homo sapiens, UniProt P25021); assay: CRE-driven luciferase activity in HEK-293 cells stably expressing hH2R; format: cell-based
T4 construct: expressed in transfected cells
Source text: (§4) Figure 3 The selectivity of ZEL-H16 for hH3R in intracellular Ca^2+ flux assay and CRE-luciferase transcription assay. A–C, Intracellular Ca^2+ flux or CRE-driven luciferase activity induced by ZEL-H16 in HEK-293 cells stably expressing hH1R (A), hH2R (B), or hH4R (C). […] The presented data points are the mean ±SE of triplicate values from a single experiment and are representative of three separate experiments. Statistical analysis between ZEL-H16 added or not added for each concentration point in the kinetic graph was done using a t-test (PRISM software). G, Relative expression of hH1R, hH2R, hH3R and hH4R on transfected HEK-293 cells by ELISA quantification for Flag-tagged cell-surface receptors (***p<0.001, compared to non-transfected HEK 293 cells).
as §1, with “Stable HEK-293 cells co-transfected with H3R and pCRE-Luc were seeded in a 48-well plate overnight and were grown to […] confluence. […] Luciferase” for “Luciferase”

hH4R = biological target: T5, hH4R (Homo sapiens, UniProt Q9H3N8); assay: CRE-driven luciferase activity in HEK-293 cells stably expressing hH4R; format: cell-based
T5 construct: expressed in transfected cells
Source text: as §4
as §1, with “Stable HEK-293 cells co-transfected with H3R and pCRE-Luc were seeded in a 48-well plate overnight and were grown to […] confluence. […] Luciferase” for “Luciferase”

H3R [3] = biological target: T1, H3R; assay: H3R internalization, cell-surface ELISA in HEK-293 cells stably transfected with Flag-H3R; format: cell-based; conditions: 100 µM, 45 min at 37°C
Procedure: ELISA data are expressed as the percentage of receptors detected on the surface of agonist-untreated cells expressing H3R. Error bars represent the SEM for four replicates.
The cell surface expression of H3R was quantitatively assessed by ELISA and performed as described previously. Briefly, HEK-293 cells stably transfected with the pCMV-H3R construct were seeded in 48-well dishes coated with poly-L-lysine. […] Medium was aspirated and the cells were washed once with Tris-buffered saline (TBS). […] Cells were then incubated for 1 h with an alkaline phosphatase-conjugated monoclonal antibody directed against the Flag epitope and diluted 1∶1,000. Cells were washed 3 times, and antibody binding was visualized by adding 0.25 mL of an alkaline phosphatase substrate (Bio-Rad). Development was stopped by adding 0.1 mL of the substrate to a 96-well microtiter plate containing 0.1 mL of 0.4 M NaOH.

H3R-EGFP = biological target: T6, H3R-EGFP (Homo sapiens, UniProt Q9Y5N1); assay: Recycling of internalized H3R-EGFP to the cell surface, confocal microscopy; format: cell-based; conditions: 20 µM ZEL-H16 or 500 µM histamine for 30 min, cycloheximide 100 µg/ml
T6 construct: expressed in transfected cells
Procedure: Figure 6 Localization of internalized H3R-EGFP stably expressed in HEK-293 cells and recycling of internalized H3R to the cell surface. […] All pictures shown are representative of at least three independent experiments.
HEK-293 cells stably expressing H3R-EGFP were seeded in covered glass-bottom 6-well plates. […] After fixing the cells with 4% paraformaldehyde for 10 min, cells were mounted in mounting reagent (DTT/PBS/glycerol). Confocal images were taken on a Zeiss LSM 510 microscope with an attached Axiovert 200 microscope and LSM5 computer system. Images were collected using QED camera software and processed with Adobe Photoshop.

H3R [4] = biological target: T7, H3R (Cavia porcellus, UniProt Q9JI35); assay: Guinea-pig ileum bioassay, inhibition of electrically induced twitch
T7 construct: from tissue; host or cells: guinea-pig ileum segments
Procedure: Each point is the mean ± s.e.m. of three to six separate experiments.
The procedure used was as described previously. Adult male guinea pigs (300–500 g) were killed by cervical dislocation. The ileum was removed at a point 20 cm from the caecum and flushed with and placed in modified K–H buffer of following composition: 118 mM NaCl, 5.9 mM KCl, 1.2 mM CaCl2, 1.2 mM MgSO4, 1 mM Na2HPO4, 25 mM NaHCO3 and 10 mM D-glucose. Ileum segments (2.5–3 cm) were suspended in 20 ml organ baths containing K–H buffer maintained at 37°C and gassed with 95% O2/5% CO2. Contractile activity under stimulation (rectangular pulses of 15 V, 0.5 ms, and 0.1 Hz) was recorded using isometric transducers (Grass FTO3). […] Mepyramine ([…]) and famotidine ([…]) (Sigma-Aldrich, St. Louis, MO) were added to the K–H buffer to block postsynaptic H1 and presynaptic H2 receptors, respectively.

T1 sequence (Q9Y5N1 whole entry): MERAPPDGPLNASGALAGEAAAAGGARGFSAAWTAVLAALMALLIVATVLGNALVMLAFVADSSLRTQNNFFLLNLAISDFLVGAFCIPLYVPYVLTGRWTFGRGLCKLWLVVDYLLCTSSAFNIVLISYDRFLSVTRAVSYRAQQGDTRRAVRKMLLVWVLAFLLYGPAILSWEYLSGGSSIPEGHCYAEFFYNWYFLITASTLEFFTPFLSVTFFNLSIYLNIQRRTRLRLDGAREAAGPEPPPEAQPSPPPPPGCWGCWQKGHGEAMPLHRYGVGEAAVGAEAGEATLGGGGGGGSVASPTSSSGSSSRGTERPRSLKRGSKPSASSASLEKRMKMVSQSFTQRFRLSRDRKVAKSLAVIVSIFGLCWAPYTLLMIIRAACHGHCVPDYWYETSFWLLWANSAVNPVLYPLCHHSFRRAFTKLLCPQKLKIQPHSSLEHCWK
T4 sequence (P25021 whole entry): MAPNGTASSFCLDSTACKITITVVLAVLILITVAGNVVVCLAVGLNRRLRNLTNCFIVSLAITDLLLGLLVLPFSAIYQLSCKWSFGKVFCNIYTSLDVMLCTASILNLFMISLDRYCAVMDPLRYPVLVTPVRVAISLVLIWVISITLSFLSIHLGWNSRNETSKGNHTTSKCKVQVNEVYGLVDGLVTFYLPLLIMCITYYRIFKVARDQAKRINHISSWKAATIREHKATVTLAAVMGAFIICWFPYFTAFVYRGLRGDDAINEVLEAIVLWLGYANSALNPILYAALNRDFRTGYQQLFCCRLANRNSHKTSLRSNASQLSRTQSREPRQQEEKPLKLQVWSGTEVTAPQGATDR
T7 sequence (Q9JI35 whole entry): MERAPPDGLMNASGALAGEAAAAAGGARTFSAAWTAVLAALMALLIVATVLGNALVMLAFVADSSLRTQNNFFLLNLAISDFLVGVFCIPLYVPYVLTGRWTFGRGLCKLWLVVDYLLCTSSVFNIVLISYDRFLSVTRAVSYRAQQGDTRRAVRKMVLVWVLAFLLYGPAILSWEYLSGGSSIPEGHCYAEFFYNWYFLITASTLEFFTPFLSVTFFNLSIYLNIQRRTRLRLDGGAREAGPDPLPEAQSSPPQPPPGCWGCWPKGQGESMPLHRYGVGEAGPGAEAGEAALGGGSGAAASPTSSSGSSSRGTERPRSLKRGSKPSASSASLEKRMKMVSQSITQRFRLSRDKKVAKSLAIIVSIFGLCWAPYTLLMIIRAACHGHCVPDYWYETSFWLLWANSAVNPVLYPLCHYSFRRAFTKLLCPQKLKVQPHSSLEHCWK
T2 sequence (Q9Y5N1 whole entry): as the sequence (Q9Y5N1 whole entry) above
T3 sequence (Q9QYN8 whole entry): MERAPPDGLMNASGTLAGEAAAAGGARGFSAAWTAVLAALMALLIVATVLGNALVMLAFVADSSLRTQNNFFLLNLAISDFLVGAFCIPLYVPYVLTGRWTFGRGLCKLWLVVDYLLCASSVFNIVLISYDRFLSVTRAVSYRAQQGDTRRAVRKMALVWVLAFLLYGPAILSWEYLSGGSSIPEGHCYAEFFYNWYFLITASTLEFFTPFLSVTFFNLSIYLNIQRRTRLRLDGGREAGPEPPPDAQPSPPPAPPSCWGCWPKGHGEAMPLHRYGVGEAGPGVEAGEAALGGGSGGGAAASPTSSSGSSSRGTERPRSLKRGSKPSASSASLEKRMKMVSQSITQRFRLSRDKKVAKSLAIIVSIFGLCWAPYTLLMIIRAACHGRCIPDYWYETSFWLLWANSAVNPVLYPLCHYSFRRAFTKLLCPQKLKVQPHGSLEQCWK
T6 sequence (Q9Y5N1 whole entry): as the sequence (Q9Y5N1 whole entry) above

- Emax (H3R [1]; HEK293): 61 ± 3.2%
- Schild slope (H3R [1]; agonist curves in the presence of 30 nM, 300 nM or 1 µM thioperamide): 1.140±0.168
- EC50 (H3R [1]; inhibition of forskolin-induced luciferase activity, Mean ± SEM, n = 6): 4.36 ± 1.39 nM
- Ki ([2]; 10 nM [3H]N-α-methylhistamine, H3R/HEK-293 membranes, read-out: Ki): 2.07 ± 0.8 nM
- affinity for human H3R as compared to histamine ([2]; higher affinity than histamine): approximately 20 fold
- Ki (rat brain H3R): 4.36 ± 2 nM
- agonist activity: luciferase activity after stimulation (hH2R; ZEL-H16 alone): no significant responses
- agonist activity: luciferase activity after stimulation (hH4R; ZEL-H16 alone): no significant responses
- loss in the expression of the receptors on the cell surface (internalization) (H3R [3]): 50%
- time for internalized H3R to recycle to the cell surface after agonist removal (H3R-EGFP): ≤ 3 h
- efficacy of inhibition of the contractions of the guinea pig ileum (H3R [4]; electrically induced twitch, mepyramine and famotidine present): 54.03±5.13%
- EC50 (H3R [4]; inhibition of electrically induced twitch, read-out: pD 2 (converted)): 269 nM
Structure (SMILES): c1ccc2c(c1)c(CCCN1CCCCC1)cn2CCCN1CCCCC1 [ZEL-H16]
- antagonist activity: influence on luciferase activity curves induced by histamine (hH2R; ZEL-H16 added to histamine): did not significantly change the luciferase activity curves
- antagonist activity: influence on luciferase activity curves induced by histamine (hH4R; ZEL-H16 added to histamine): did not significantly change the luciferase activity curves

Source: article PMC3411647 (PLoS ONE, 2012)
